From patent US20260034112A1, “MULTI-CYCLIC IRAK1 AND IRAK4 INHIBITING COMPOUNDS AND USES THEREOF” (CHILDREN'S HOSPITAL MEDICAL CENTER, priority 2022, published 2026)
Values after ≈ are worked out from the molar mass of the structure shown. Values joined by “and” are separate entries in the source; they are usually repeats but may differ in a detail not shown here. Equal entries are not always repeated. Where two headings read alike, the source gives them in different places.

Experiments:
[1] = molecular target: T1, IRAK4 (Homo sapiens, UniProt Q9NWZ3); assay: Reaction Biology Kinase Assay service, kinase inhibition (IC50); assay type: biochemical
T1 construct: purchased Reaction Biology (contract assay service)
T1 sequence (Q9NWZ3 1-460): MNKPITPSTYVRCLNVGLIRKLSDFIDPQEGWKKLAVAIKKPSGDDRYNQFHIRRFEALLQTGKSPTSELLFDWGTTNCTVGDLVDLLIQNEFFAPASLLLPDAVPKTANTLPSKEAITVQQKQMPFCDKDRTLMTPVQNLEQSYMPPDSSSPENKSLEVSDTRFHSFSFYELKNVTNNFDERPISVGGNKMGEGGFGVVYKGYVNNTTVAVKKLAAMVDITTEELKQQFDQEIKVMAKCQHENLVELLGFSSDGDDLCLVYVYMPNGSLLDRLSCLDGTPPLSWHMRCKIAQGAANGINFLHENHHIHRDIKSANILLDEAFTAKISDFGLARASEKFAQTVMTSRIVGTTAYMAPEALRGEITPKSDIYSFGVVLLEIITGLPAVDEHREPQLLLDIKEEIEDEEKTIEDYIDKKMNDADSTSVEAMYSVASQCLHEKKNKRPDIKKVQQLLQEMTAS

[2] = Survival in xenograft mice versus emavusertib and gilteritinib (FIG. 28); conditions: compared to emavusertib (CA-4948) and gilteritinib
[3] = test system: NF-kB activity upon IL-1β stimulation (IL-1R) in THP1 NF-kB reporter cells; assay: THP1 NF-kB reporter assay, IL-1β stimulation; assay type: cell-based, human; conditions: for Suppression of NF-kB signaling through the IL-1 receptor: result in words
[4] = molecular target: T2, IRAK1 (Homo sapiens, UniProt P51617); assay: Reaction Biology Kinase Assay service, kinase inhibition (IC50); assay type: biochemical; conditions: for IRAK4:IRAK1 potency ratio: calculated from the IRAK1 and IRAK4 IC50
T2 construct: purchased Reaction Biology (contract assay service)
T2 sequence (P51617 whole entry): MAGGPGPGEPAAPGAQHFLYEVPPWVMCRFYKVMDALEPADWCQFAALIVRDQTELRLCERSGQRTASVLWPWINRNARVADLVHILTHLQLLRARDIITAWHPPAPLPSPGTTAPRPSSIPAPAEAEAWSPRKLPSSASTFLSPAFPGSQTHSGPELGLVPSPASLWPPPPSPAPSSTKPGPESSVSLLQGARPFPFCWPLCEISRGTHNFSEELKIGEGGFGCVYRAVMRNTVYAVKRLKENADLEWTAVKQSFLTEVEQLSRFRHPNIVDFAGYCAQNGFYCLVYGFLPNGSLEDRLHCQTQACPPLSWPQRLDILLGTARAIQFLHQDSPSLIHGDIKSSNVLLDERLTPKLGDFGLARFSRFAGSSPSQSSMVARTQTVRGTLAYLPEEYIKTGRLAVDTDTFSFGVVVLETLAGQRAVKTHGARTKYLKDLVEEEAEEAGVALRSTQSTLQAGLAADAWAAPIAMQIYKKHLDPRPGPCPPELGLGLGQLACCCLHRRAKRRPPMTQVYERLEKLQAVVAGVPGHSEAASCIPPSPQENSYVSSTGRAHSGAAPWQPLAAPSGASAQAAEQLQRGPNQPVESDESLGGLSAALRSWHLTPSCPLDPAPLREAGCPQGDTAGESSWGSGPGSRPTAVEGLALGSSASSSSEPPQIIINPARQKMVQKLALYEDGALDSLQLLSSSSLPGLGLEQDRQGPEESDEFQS

[5] = test system: NF-kB activity upon TLR2 stimulation with PAM3CSK4 in THP1-Blue NF-kB SEAP reporter cells; assay: THP1-Blue NF-kB SEAP reporter assay, TLR2 stimulation with PAM3CSK4; assay type: cell-based, human; conditions: for Suppression of TLR2-mediated activation of NF-kB: THP1 cells
[6] = Plasma protein binding, human; assay type: in vitro ADME
[7] = test system: THP1 cells; assay type: cell-based, human; conditions: AML cells versus vehicle
[8] = test system: IRAK1 phosphorylation in MDS/AML cells; assay: Immunoblotting for phospho-IRAK1; assay type: cell-based, human; conditions: THP1 and MDSL cells, 500 nM, 24 hours
[9] = test system: AML(64519), AML(0169), and MDS(76960) cells; assay: Patient-derived AML/MDS xenografts treated orally; assay type: in vivo, NSGS mice; conditions: PO daily, Compound 14 30 mg/kg or Compound 15 100 mg/kg; for Median survival: NSGS mice engrafted with AML(0169), vehicle 29 days; for Leukemic cell engraftment in the PB: AML(64519), AML(0169), MDS(76960) at day 40, 29, 48, versus vehicle
[10] = PAMPA; assay type: in vitro ADME
[11] = Pharmacokinetic analysis, drug concentration after PO dosing
[12] = molecular target: T1, IRAK4; assay: DiscoverX KINOMEscan Profiling Service, dissociation constant; assay type: binding
[13] = molecular target: T2, IRAK1; assay: as above; assay type: binding
[14] = Microsomal stability (Mic t½), mouse; assay type: in vitro ADME
[15] = test system: MDS/AML cell lines and patient-derived samples; assay: Clonogenic assay (colony formation in methylcellulose); assay type: cell-based, human; conditions: for Colony formation after in vitro exposure: AML(1714) cells, 500 nM for 21 days, then 250 live cells plated, 10 days
[16] = Solubility; assay type: physicochemical
[17] = Plasma protein binding, mouse; assay type: in vitro ADME
[18] = Microsomal stability (Mic t½), rat; assay type: in vitro ADME
[19] = test system: AML(1714) cells; assay: Xenograft of AML(1714) cells pre-treated in vitro for 21 days; assay type: in vivo; conditions: AML(1714) pre-treated 500 nM 21 days, xenografted NSGS mice
[20] = test system: MDSL, THP1, OCIAML3, AML(1714), and AML(1294) cells; assay: Annexin V staining (apoptosis); assay type: cell-based, human; conditions: 500 nM, 48 hours
[21] = test system: healthy donor CD34+ cells; assay: Myeloid and erythroid colony formation of healthy donor cells; assay type: cell-based, human; conditions: same concentrations as in the leukemic colony assay
[22] = test system: MDS/AML cell lines and patient-derived samples; assay: Differentiation: Wright-Giemsa stains and CD38 immunophenotyping; assay type: cell-based, human
[23] = Microsomal stability (Mic t½), human; assay type: in vitro ADME
[24] = functional biochemical assay, read-out: IRAK4 IC50
[25] = THP1 NF-kB reporter cells, read-out: IC50 vs. IL-1β (NF-kB activation)
[26] = functional biochemical assay, read-out: IRAK1 IC50

COc1cc2ncc(-c3nc(N[C@@H]4CCCNC4)c(F)cc3F)n2nc1C1CC1 [Compound 8]
LOG (IRAK4) ([1]; Table 1, log of IRAK4 IC50): 0.19
IC50 ([1]; Table 1, unit nM, read-out: Reaction Bio IRAK4 IC50): 1.54 nM
Survival in xenograft mice [2]: enhanced survival
IC50 ([3]; Homo sapiens, THP-1, Table 1, unit nM, read-out: THP-1 NFkB IL1B IC50): 58.7 nM
LOG (IL1B) ([3]; Table 1, log of IL1B IC50): 1.77
LOG (IRAK1) ([4]; Table 1, log of IRAK1 IC50): 1.43
IC50 ([4]; Table 1, unit nM, read-out: Reaction Bio IRAK1 IC50): 27.2 nM
IC50 ([5]; Homo sapiens, THP-1, Table 1, unit nM, read-out: THP-1 NFkB PAM IC50): 62.9 nM
LOG (PAM) ([5]; Table 1, log of PAM IC50): 1.80

COc1ccc2ncc(-c3cccc(N[C@@H]4CCCNC4)n3)n2c1 [Compound 14]
Plasma Prot Bind (% free - h) [6]: 26.5 % free
IC50 [1, 24]: 5 nM
Effect on genes of the IRAK1/4 AML signature [7]: unremarkable effect
Phosphorylation of IRAK1 [8]: did not affect phosphorylation of IRAK1
Median survival [9]: 33 days
Leukemic cell engraftment in the PB [9]: did not significantly suppress
PAMPA [10]: 746 10^−6 cm/s
Mean Free Drug Concentration ([11]; PO 30 mg/kg, 0.25 h): 336 nM
Mean Total Drug Concentration ([11]; PO 30 mg/kg, 0.25 h): 869 nM
Mean Free Drug Concentration ([11]; PO 30 mg/kg, 0.5 h): 360 nM
Mean Total Drug Concentration ([11]; PO 30 mg/kg, 0.5 h): 932 nM
Mean Free Drug Concentration ([11]; PO 30 mg/kg, 1 h): 309 nM
Mean Total Drug Concentration ([11]; PO 30 mg/kg, 1 h): 801 nM
Mean Free Drug Concentration ([11]; PO 30 mg/kg, 2 h): 217 nM
Mean Total Drug Concentration ([11]; PO 30 mg/kg, 2 h): 562 nM
Mean Free Drug Concentration ([11]; PO 30 mg/kg, 4 h): 101 nM
Mean Total Drug Concentration ([11]; PO 30 mg/kg, 4 h): 262 nM
Mean Free Drug Concentration ([11]; PO 30 mg/kg, 8 h): 30 nM
Mean Total Drug Concentration ([11]; PO 30 mg/kg, 8 h): 78 nM
Mean Free Drug Concentration ([11]; PO 30 mg/kg, 24 h): 0 nM
Mean Total Drug Concentration ([11]; PO 30 mg/kg, 24 h): 0 nM
Kd [12]: 5 nM
Kd [13]: 150 nM
Tier 2 Mic t½ (m) [14]: N.D./25/N.D. min
IC50 [3, 25]: 227 nM
Suppression of NF-kB signaling through the IL-1 receptor ([3]; THP1 NF-kB reporter cells): completely suppress
Colony formation after in vitro exposure [15]: only partially suppressed
Reduction in leukemia progenitor cell colony formation ([15]; MDS/AML cell lines, 250 nM or 1 μM): 60-75%
Reduction in leukemia progenitor cell colony formation ([15]; all MDS/AML cell lines and patient-derived samples, 250 nM or 1 μM): approximately 75%
Reduction in leukemia progenitor cell colony formation ([15]; patient-derived AML samples, 250 nM or 1 μM): 80-85%
Solubility [16]: >48 mg/mL
IRAK4:IRAK1 potency ratio [4]: 100
IC50 [4, 26]: > 500 nM
Plasma Prot Bind (% free - ms) [17]: 38.6 % free
Suppression of TLR2-mediated activation of NF-kB ([5]; at 5 μM): ~80%
Tier 1 Mic t½ (r) [18]: >30 min
Leukemic engraftment and AML development of pre-treated cells [19]: only partially suppressed

CC1(c2ccc3ncc(-c4cccc(N[C@@H]5CCNC5)n4)n3c2)CC1 [Compound 15]
Plasma Prot Bind (% free - h) [6]: 2.46 % free
IC50 [1, 24]: 0.9 nM
Genes of the IRAK1/4 AML signature suppressed [7]: ~65%
Apoptosis (Annexin V staining) [20]: more effective than Compound 14 at mediating apoptosis
Phosphorylation of IRAK1 [8]: inhibited auto-phosphorylation of IRAK1
Median survival [9]: 40 days
Leukemic cell engraftment in the PB [9]: significantly reduced
PAMPA [10]: 495 10^−6 cm/s
Mean Free Drug Concentration ([11]; PO 100 mg/kg, 0.25 h): 263 nM
Mean Total Drug Concentration ([11]; PO 100 mg/kg, 0.25 h): 3845 nM
Mean Free Drug Concentration ([11]; PO 100 mg/kg, 0.5 h): 258 nM
Mean Total Drug Concentration ([11]; PO 100 mg/kg, 0.5 h): 3764 nM
Mean Free Drug Concentration ([11]; PO 100 mg/kg, 1 h): 207 nM
Mean Total Drug Concentration ([11]; PO 100 mg/kg, 1 h): 3018 nM
Mean Free Drug Concentration ([11]; PO 100 mg/kg, 2 h): 139 nM
Mean Total Drug Concentration ([11]; PO 100 mg/kg, 2 h): 2034 nM
Mean Free Drug Concentration ([11]; PO 100 mg/kg, 4 h): 109 nM
Mean Total Drug Concentration ([11]; PO 100 mg/kg, 4 h): 1594 nM
Mean Free Drug Concentration ([11]; PO 100 mg/kg, 8 h): 50 nM
Mean Total Drug Concentration ([11]; PO 100 mg/kg, 8 h): 726 nM
Mean Free Drug Concentration ([11]; PO 100 mg/kg, 24 h): 1 nM
Mean Total Drug Concentration ([11]; PO 100 mg/kg, 24 h): 9 nM
Kd [12]: 0.2 nM
Kd [13]: 2.2 nM
Tier 2 Mic t½ (m) [14]: 29 min
IC50 [3, 25]: 9.3 nM
Suppression of NF-kB signaling through the IL-1 receptor ([3]; THP1 NF-kB reporter cells): completely suppress
Colony formation after in vitro exposure [15]: significantly diminished colony formation
Suppression of leukemia progenitor cell colony formation ([15]; MDS/AML cell lines and patient-derived samples, 250 nM or 1 μM, complete in all samples except THP1): complete suppression of leukemia progenitor cell colony formation
Erythroid colony formation of healthy donor CD34+ cells [21]: increased erythroid colony formation
Myeloid cell colonies of healthy donor CD34+ cells [21]: only modesty inhibited
Solubility [16]: 31 mg/mL (≈ 93 mM)
IRAK4:IRAK1 potency ratio [4]: 36
IC50 [4, 26]: 32 nM
Plasma Prot Bind (% free - ms) [17]: 6.85 % free
IC50 ([5]; THP1 NF-kB reporter cells, read-out: IC50 vs. Pam3CSK4 (TLR2-mediated NF-kB activation)): 6.3 nM and 4.5 nM
Suppression of TLR2-mediated activation of NF-kB ([5]; at 100 nM): completely suppressed
Tier 1 Mic t½ (r) [18]: >30 min
Tier 2 Mic t½ (r) [18]: 68 min
Morphology (Wright-Giemsa staining) ([22]; 500 nM, 12 days): heterogeneous morphologies and size and increased cytoplasmic to nuclear ratios
Expression of CD38 ([22]; 12 days of treatment, versus Compound 14 or vehicle): greater expression of CD38
Tier 2 Mic t½ (h) [23]: 1.7 h
Leukemic engraftment and AML development of pre-treated cells [19]: complete loss of leukemic engraftment and AML development
